Laboratory results as given in patent publication US20240325375A1, “Effect of YEL002 on Psychological and Psychiatric Factors in Health and Disease” (RadMit, Inc., priority 2023, published 2024).

Key:
irradiated mice = assay: Radiation mitigation in mice irradiated with an LD100; format: in vivo
ATM-deficient mice = assay: Lifespan of ATM-deficient mice injected weekly; format: in vivo; conditions: ATM-deficient mice injected every week during most of their lifespans
From the text: It is speculated that this is because the primary screen applied was against radiation-induced toxicity as well as genotoxicity which causes cancer. Researchers involved in other labs were screening only against radiation-induced toxicity and thereby cells with genotoxicity survive and cause even more cancer and late effects of which surviving mice died. In our experiments, however, a screen against radiation induced toxicity as well as genetic instability made sure that the surviving cells also had no genetic instability which otherwise would have led to an increase in cancer and other diseases. In the experiment, ATM-deficient mice injected every week with YEL002 during most of their lifespans lived 33% longer than without injections.

lymphoma = assay: Lymphoma incidence in mice (National Institute of Health experiment); format: in vivo; conditions: radiation exposure caused 90% to develop lymphoma without treatment
Method: In another experiment at the National Institute of Health, in other mice after radiation exposure which caused 90% of them to develop lymphoma, there was a reduction of the lymphoma incidence to 40% and the spontaneous frequency was reduced from 10-20% down to 0%. […] This was observed after treating mice right after birth, if humans are treated later in life it is possible that only 10 or 5 years are added and probably more for DNA repair deficient diseases like ataxia telangiectasia (ATM) which is still very substantial, especially, since it treats and reduces the likelihood of many diseases.

[1] = test system: three different cancer cell lines; assay: Radiation killing of cancer cell lines; format: cell-based
From the text: (§1) It is also observed that three different cancer cell lines were not protected from radiation killing by YEL002, which indicates a use in radiation oncology or chemotherapy where the tumor can still be killed by the radiation, or chemotherapy but YEL002 protects the rest of the body from radiation or chemotherapy damage, and inhibits secondary carcinogenesis.

human keratinocytes = assay: Proteomics study of protein induction; format: cell-based
From the text: In terms of mechanism of action in a proteomics study, the chemical was capable of inducing 244 different proteins in human keratinocytes, which comprised anti-inflammatory proteins, DNA repair proteins, and 9 neuroprotective proteins. It is known that turtles at the Galapagos Islands live 150 or more years without cancer and have multiple copies of DNA repair genes and anti-inflammatory genes. The compound boosts the expression of these genes in mammals. Since it induces DNA repair and is anti-inflammatory, it may be possible to prevent and cure many diseases and extend the life.
A direct effect of YEL002 on the autonomic or sympathetic nervous system, the flight or fight response, which can explain all the effects that we find.

[2] = Clinical trial on psychological, psychiatric and memory loss endpoints; format: in vivo, human
From the text: 7 less argumentative, 10 less angry or aggressive. 8 experienced better quality sleep. 8 needed less sleep and 5 became nicer. It gets rid of addictions and reduces symptoms of depression and Alzheimer's disease.

[3] = PHQ-9 assessment of a patient with recalcitrant depression; format: in vivo, human
Method: If they work at all, improvements take at least 4 weeks and may increase patient weight. In this patient's assessment using a standard PHQ-9 form, the patient was assessed before and after treatment with YEL002. The PHQ-9 form assigns a numerical value corresponding to the level of depression, meaning a higher level means increased depression values. In this patient, before treatment, the values was in 3 different instances 6, 9 and 15 with designation of “very difficult” and “extremely difficult” and they cried 3 times during 30 minutes of our interview and said they hate the world. Before the test indicates mild depression to moderately severe depression. […] Since there is no lower designation this indicates no depression. This is also called snapping out of depression, which was a technical term in the past because it was not observed before now.

Covid virus = format: in vivo; conditions: compared with without YEL002
[4] = Case studies and patient testimonials; format: in vivo, human
Effects on pets (cats) = format: in vivo; conditions: cats after treatment
Method: Effects on pets. My cats, Susie and Celine were the sweetest cats before I started to treat them. But after treatment they are now even sweeter, cuddlier and more attached to me, and sleep 2 hours longer per day. I call them lap cats now like the dog pendant. They lost loofiness, shyness to new visitors, quietly sit next to each other and licking each other or me and just want to sit close to me or on my lap and be petted. Before after 5 to 10 minutes of petting they just left and did something else. Now they stay for hours and the only reason for them to leave is when I stop petting them. And they are even better at play and jump exactly, landing where they intend to, don't bump into things and catch the toys the first time every time.

Solubility of the powder = format: physicochemical; conditions: off-white powder
Method: The compound takes the appearance of an off-white powder and is fat soluble. One takes an eighth teaspoon or about 0.5 g dissolved in a couple of teaspoons of oil. In an exemplary embodiment, it is dissolved in grape seed or any other appropriate oil and taken twice a day, once in the morning and once in the evening. It is easy to use and has almost no taste.

[5] = Side effects and blood thinning; format: in vivo
Method: Thus, if nose bleeding occurs at that dose when blowing one's nose, one should reduce the dose to half and nose bleeding will stop within about 12 hours or less. Once the flue or sneezing is gone one may increase the dose again.
as §1

[6] = heavy smoker, one week after treatment
[7] = subject on chemotherapy, one week on YEL002

Which “survival of irradiated mice” value (irradiated mice; LD100 radiation, IP injection 24 hours after radiation and another four doses in 24 hours intervals, without it 100% died after 10 to 15 days) does the source give for COc1ccc2cc(-c3nc4ccc(C)cn4c3NCc3ccco3)c(=O)[nH]c2c1 [YEL002] here?
The value was 100%.

What about the “life span of surviving irradiated mice” value (irradiated mice; many of the surviving mice, normal life span) of the same molecule?
The value was “more than 2 years”.

What about the “lived longer than without injections” value (ATM-deficient mice) of the same molecule?
Its value is 33%.

And the “lymphoma incidence after radiation exposure” value (lymphoma)?
The value was 40%.

And the “protection of cancer cell lines from radiation killing” value [1]?
Its value is “not protected”.

What about the “number of different proteins induced” value (human keratinocytes; human keratinocytes, anti-inflammatory, DNA repair and neuroprotective proteins) of the same molecule?
Its value is 244 proteins.

What about the “number of neuroprotective proteins/functions induced” value (human keratinocytes; proteomics) of the same molecule?
The value was 9.

What about the became nicer [2] of the same molecule?
The became nicer was 5 people.

And the “experienced better quality sleep” value [2]?
The value was 8 people.

What about the felt more energetic [2] of the same molecule?
Its felt more energetic is 10 people.

What about the “less angry or aggressive” value [2] of the same molecule?
Its value is 10 people.

And the less argumentative [2]?
The less argumentative was 7 people.

What about the less combative [2] of the same molecule?
The less combative was 7 people.

What about the less tired [2] of the same molecule?
Its less tired is 5 people.

What about the needed less sleep [2] of the same molecule?
Its needed less sleep is 8 people.

And the “PHQ-9 value after treatment” value ([3]; after one week on YEL002, the following two weeks, before treatment 6, 9 and 15)?
Its value is 3.

And the “PHQ-9 difficulty designation after treatment” value ([3]; before treatment very difficult and extremely difficult)?
The value was “somewhat difficult”.

What about the recalcitrant depression outcome ([3]; person with depression for 20 years, within one week) of the same molecule?
Its recalcitrant depression outcome is “completely cured”.

What about the “clearance of Covid virus” value (Covid virus) of the same molecule?
The value was “cleared faster”.

What about the “memory of patient with Alzheimer's disease” value ([4]; after 4 weeks treatment) of the same molecule?
Its value is “improved”.

And the cholesterol ([4]; after two days of treatment)?
The cholesterol was “normal”.

And the “symptoms of coughing and diarrhea” value ([4]; case study, used for eight weeks)?
The value was “reduced symptoms of coughing and diarrhea”.

And the “allergic attacks such as sneezing and runny nose” value ([4]; dissolved in oil, nose spray 2-4 times a day)?
The value was “completely prevented”.

What about the hair loss [4, 6] of the same molecule?
The hair loss was “completely stopped”.

And the “smoker's legs oozing lymph liquid” value [4, 6]?
Its value is “completely healed”.

And the astigmatism fixed ([4]; in only 4 weeks)?
Its astigmatism fixed is 1.

And the eye-sight deficiency fixed ([4]; in only 4 weeks)?
Its eye-sight deficiency fixed is 2 diopters.

What about the “coughing and wheezing symptoms post-chemotherapy” value ([4]; one hour after treatment) of the same molecule?
The value was “completely alleviated”.

What about the blood ([4]; patient testimonial) of the same molecule?
The blood was “thinner”.

And the “major arguments with spouse” value ([4]; patient with long COVID19 and diabetes, 5-10 before treatment)?
Its value is 0-1 per day.

And the “memory of another person” value ([4]; remembers where they left their car)?
The value was “much improved”.

What about the vomiting under chemotherapy [4, 7] of the same molecule?
The vomiting under chemotherapy was “completely stopped”.

What about the weight gained [4, 7] of the same molecule?
Its weight gained is 2 kg.

What about the “levels of liver damage” value ([4]; twice elevated for 25 years, after two days of treatment) of the same molecule?
Its value is “normal and below the cutoff”.

And the alcohol addiction ([4]; two alcoholics)?
The alcohol addiction was “completely cured”.

What about the “periodontics or receding gums” value ([4]; user study) of the same molecule?
Its value is “healed”.

What about the cats sleep longer (Effects on pets (cats)) of the same molecule?
Its cats sleep longer is 2 hours per day.

What about the solubility (Solubility of the powder) of the same molecule?
Its solubility is “fat soluble”.

What about the “blood-thinning; nose bleeding at the dose” value ([5]; about 1 gram per day, nose bleeding stops within about 12 hours or less at half dose) of the same molecule?
Its value is “blood-thinning properties”.

And the side effects ([5]; in vivo)?
Its side effects is “no side effects”.
